From patent US4619943A, “Neolignans of Saururus cernuus L and analogues thereof” (priority 1984, dated 1986)
“And” between values parts separate entries of the source, which are not always exact repeats. Equal entries are not always repeated. “Also recorded” adds a separate entry of the source.

Experiments:
M. incognita = test: Effect on nematode motility; type: in vivo, Meloidogyne incognita; settings: 24 hours, of 300 juveniles; for Number of Motile Nematodes, Avg.: water 233.6
Description: In a separate test, 300 juveniles of M. incognita were placed in a container closed with a screen of openings 17 μm and exposed to various concentrations of the test compound. After 24 hours, the number of nematodes able to migrate downward (from the inverted container) were counted. Eight replicates were run for each sample, and the results were analyzed by Duncan's

mice [1] = test: Neuroleptic / CNS-depressant activity in experimental animals (general statements); type: in vivo
[2] = Morphine antagonism (Straub tail phenomenon); settings: SC-8 1.5 mg/Kg, morphine sulfate 20 mg/Kg ip
[3] = Potentiation of pentobarbital sleeping time; type: in vivo, mice; parameters: Sleeping Time, Treated: unit not given here
Description: SC-8 has the ability to potentiate the sedative activity of pentobarbital. The procedure employed is that of Turner (R. A. Turner, Screening Methods in Pharmacology, Academic Press, New York, p. 302 (1965)), in which three groups of mice were injected ip with the drug at three levels and a control group with saline. […] The sleeping time of each was measured as the interval between the loss and recovery of the righting reflex, and activity is defined as at least a 200% prolongation of sleeping time.

Meloidogyne incognita = test: Nematicidal test: galls on tomato root system; type: in vivo; settings: 10 days
Description: Juveniles of the nematode Meloidogyne incognita were placed in 10 ml vials containing 5 ml of sand each and were soaked with 3 ml of solutions of the test compound at different concentrations in 1% ethanol in water for 24 hours. Tomato seedlings (4-6" high, with roots partly trimmed) were placed in the vials which were then placed in a growth chamber at 28° for 10 days. The tests were watered as needed to keep the sand moist. After 10 days, the plants were removed, and the galls counted on each root system. Each sample was tested in replicates of 10, and the results were analyzed according to Duncan's multiple range test ([…]). The results for SC-8 are shown in Tables 3 and 4 which represent two different experiments spaced approximately two months apart. In the later test (Table 4), the amount of ethanol in the test solutions was varied.

Solubility = type: physicochemical
mice [4] = test: Behavioral assay in mice (Campbell and Richter), sixteen behavioral signs; type: in vivo; settings: injected, after 30 minutes
Description: The behavioral assay in mice was carried out using the procedures of Campbell and Richter (D. E. S. Campbell and W. Richter, Acta Pharmacol. et Toxicol. 25, 345 (1967)). The method involved injection of five mice with the drug and obseving for sixteen behavioral signs after 30 minutes. A recognizable pattern will be apparent, characteristic of various CNS-activities: sympathomimetic, tranquilizer, etc.
Ten male Swiss mice (20-25 g) were divided into groups. One group was injected with physiological saline to serve as control. The other group was injected with 15 mg/Kg of benzene-partition sample (prepared as in Example 2) in suspension form (0.6 mg/ml) in physiological saline solution containing 0.5% carboxymethylcellulose. […] These are all considered as indicators of neuroleptic activity.

[5] = test system: mosquito larvae (Aedes aegypti); test: Mosquito larvae test; type: in vivo; settings: 24 hours
Description: Similarly, in a test using mosquito larvae (Aedes aegypti) as the insect test species, SC-7 gave 15% mortality and SC-8 gave 93% mortality at an application rate of 100 ppm. In this test, one ml of a solution of 1000 ppm of the test compound in 10% acetone - 90% water was added to 9 ml of water in a culture tube. Ten mosquito larvae were added, and mortality readings were taken 24 hours later.

[6] = Antiamphetamine activity (method of Weissman et al., mice instead of rats); type: in vivo
Description: Neuroleptic drugs are said to bind to postsynaptic dopamine receptors in the brain, thereby blocking dopaminergic transmission. […] Based on this, an assay for possible neuroleptic activity was developed and is commonly used. […] 151, 339 (1966)), except that mice were used instead of rats. A comparison under the same conditions was also made of the antiamphetamine activity of a standard neuroleptic drug, haloperidol, which gave an ED50 value of 0.5 mg/Kg (Table 2).

SMILES: COc1ccc(C(O)C(C)Oc2ccc([C@@H]3O[C@@H](c4ccc(OC(C)C(O)c5ccc(OC)c(OC)c5)c(OC)c4)[C@@H](C)[C@@H]3C)cc2OC)cc1OC (stereo partly drawn) [SC-8, 2α,5β-bis[3-methoxy-4-{threo-3-hydroxy-3-(3,4-dimethoxyphenyl)}isopropoxyphenyl]-3α,4β-dimethyltetrahydrofuran]
- Number of Motile Nematodes, single replicates (1 to 8) (M. incognita; 1 ppm): 258 and 233 and 186 and 340 and 295 and 248 and 103 and 238
- Number of Motile Nematodes, Avg. (M. incognita; 1 ppm): 237.6
- Number of Motile Nematodes, single replicates (1 to 8) (M. incognita; 5 ppm): 113 and 294 and 223 and 236 and 264 and 256 and 205 and 211
- Number of Motile Nematodes, Avg. (M. incognita; 5 ppm): 225.3
- Number of Motile Nematodes, single replicates (1 to 8) (M. incognita; 10 ppm): 188 and 170 and 174 and 263 and 204 and 214 and 228
- Number of Motile Nematodes, Avg. (M. incognita; 10 ppm): 201.4
- Number of Motile Nematodes, single replicates (1 to 8) (M. incognita; 25 ppm): 67 and 85 and 97 and 56 and 99 and 120 and 131 and 84
- Number of Motile Nematodes, Avg. (M. incognita; 25 ppm): 92.4
- Number of Motile Nematodes, single replicates (1 to 8) (M. incognita; 50 ppm): 163 and 223 and 109 and 102 and 31 and 232 and 225 and 108
- Number of Motile Nematodes, Avg. (M. incognita; 50 ppm): 149.1
- CNS-depressant activity (mice [1]; experimental animals / mice): useful CNS-depressant activity
- neuroleptic activity (mice [1]; mouse, in vivo): neuroleptically active
- effect on morphine-induced Straub tail [2]: counteracted this effect
- Degree of Tail Elevation, After 20 min. ([2]; before SC-8 40°): 10 °
- Degree of Tail Elevation, After 50 min. ([2]; before SC-8 40°): 10 °
- % Increase of Sleeping Time ([3]; SC-8 0.01 mg/Kg ip, pentobarbital 40 mg/Kg): 175%
- Sleeping Time, Treated ([3]; SC-8 0.01 mg/Kg ip, pentobarbital 40 mg/Kg, control 12.0): 21.0
- % Increase of Sleeping Time ([3]; SC-8 0.06 mg/Kg ip, pentobarbital 40 mg/Kg): 217%
- Sleeping Time, Treated ([3]; SC-8 0.06 mg/Kg ip, pentobarbital 40 mg/Kg, control 12.0): 26.0
- % Increase of Sleeping Time ([3]; SC-8 0.125 mg/Kg ip, pentobarbital 40 mg/Kg): 158%
- Sleeping Time, Treated ([3]; SC-8 0.125 mg/Kg ip, pentobarbital 40 mg/Kg, control 12.0): 19.0
- % Increase of Sleeping Time ([3]; SC-8 0.25 mg/Kg ip, pentobarbital 40 mg/Kg): 304%
- Sleeping Time, Treated ([3]; SC-8 0.25 mg/Kg ip, pentobarbital 40 mg/Kg, control 10.8): 32.8
- % Increase of Sleeping Time ([3]; SC-8 0.4 mg/Kg ip, pentobarbital 42 mg/Kg): 280%
- Sleeping Time, Treated ([3]; SC-8 0.4 mg/Kg ip, pentobarbital 42 mg/Kg, control 16): 44.8
- % Increase of Sleeping Time ([3]; SC-8 0.5 mg/Kg ip, pentobarbital 40 mg/Kg): 357%
- Sleeping Time, Treated ([3]; SC-8 0.5 mg/Kg ip, pentobarbital 40 mg/Kg, control 10.8): 36.6
- % Increase of Sleeping Time ([3]; SC-8 1.0 mg/Kg ip, pentobarbital 40 mg/Kg): 300%
- Sleeping Time, Treated ([3]; SC-8 1.0 mg/Kg ip, pentobarbital 40 mg/Kg, control 10.8): 32.4
- % Increase of Sleeping Time ([3]; SC-8 4.0 mg/Kg ip, pentobarbital 42 mg/Kg): 857%
- Sleeping Time, Treated ([3]; SC-8 4.0 mg/Kg ip, pentobarbital 42 mg/Kg, control 16): 140
- prolongation of pentobarbital-sleeping time (conclusion) ([3]; dose range 1.0-0.05 mg/Kg): significant prolongation
- potentiating sedatives of the pentobarbital type (summary) ([3]; summary statement, no dose): significant activity
- Number of Galls/Root System, single replicates (1 to 10) (Meloidogyne incognita; Table 3, 1 ppm, 1% ethanol): 17 (2×) and 13 and 20 and 21 and 24 and 3 and 28 and 40 and 16
- Number of Galls/Root System, Avg. (Meloidogyne incognita; Table 3, 1 ppm, 1% ethanol, 1% ethanol control 23.7, water 28.8): 19.8
- Number of Galls/Root System, single replicates (1 to 10) (Meloidogyne incognita; Table 3, 5 ppm, 1% ethanol): 26 and 34 and 3 and 0 (2×) and 19 and 24 and 4 and 14 and 13
- Number of Galls/Root System, Avg. (Meloidogyne incognita; Table 3, 5 ppm, 1% ethanol, 1% ethanol control 23.7, water 28.8): 13.7
- Number of Galls/Root System, single replicates (1 to 10) (Meloidogyne incognita; Table 3, 10 ppm, 1% ethanol): 14 (2×) and 17 and 18 and 1 and 2 and 42 and 29 and 3 and 7
- Number of Galls/Root System, Avg. (Meloidogyne incognita; Table 3, 10 ppm, 1% ethanol, 1% ethanol control 23.7, water 28.8): 14.7
- Number of Galls/Root System, single replicates (1 to 10) (Meloidogyne incognita; Table 3, 25 ppm, 1% ethanol): 3 and 10 and 11 and 18 and 17 (2×) and 26 and 15 and 12 and 24
- Number of Galls/Root System, Avg. (Meloidogyne incognita; Table 3, 25 ppm, 1% ethanol, 1% ethanol control 23.7, water 28.8): 15.3
- Number of Galls/Root System, single replicates (1 to 10) (Meloidogyne incognita; Table 3, 50 ppm, 1% ethanol): 12 (3×) and 15 and 16 (2×) and 20 and 21 and 18 and 7
- Number of Galls/Root System, Avg. (Meloidogyne incognita; Table 3, 50 ppm, 1% ethanol, 1% ethanol control 23.7, water 28.8): 14.9
- Number of Galls/Root System, single replicates (1 to 10) (Meloidogyne incognita; Table 4, 1 ppm, 0.01% ethanol): 7 and 10 and 18 and 14 and 23 and 32 and 1 and 5 and 16 and 9
- Number of Galls/Root System, Avg. (Meloidogyne incognita; Table 4, 1 ppm, 0.01% ethanol, water 25.5): 13.5
- Number of Galls/Root System, single replicates (1 to 10) (Meloidogyne incognita; Table 4, 5 ppm, 0.05% ethanol): 7 and 36 and 17 and 18 and 25 and 6 and 14 and 16 and 11
- Number of Galls/Root System, Avg. (Meloidogyne incognita; Table 4, 5 ppm, 0.05% ethanol, water 25.5): 16.7
- Number of Galls/Root System, single replicates (1 to 10) (Meloidogyne incognita; Table 4, 10 ppm, 0.1% ethanol): 10 and 22 and 34 and 23 and 25 and 26 and 24 and 0
- Number of Galls/Root System, Avg. (Meloidogyne incognita; Table 4, 10 ppm, 0.1% ethanol, water 25.5): 18.4
- Number of Galls/Root System, single replicates (1 to 10) (Meloidogyne incognita; Table 4, 25 ppm, 0.25% ethanol): 1 and 8 and 30 and 2 and 28 and 7 and 14
- Number of Galls/Root System, Avg. (Meloidogyne incognita; Table 4, 25 ppm, 0.25% ethanol, water 25.5): 10.1
- Number of Galls/Root System, single replicates (1 to 10) (Meloidogyne incognita; Table 4, 50 ppm, 0.5% ethanol): 12 and 4 and 0 and 22 and 8 and 1 and 5 and 34
- Number of Galls/Root System, Avg. (Meloidogyne incognita; Table 4, 50 ppm, 0.5% ethanol, water 25.5): 8.6
- solubility in alcohols, acetone, chloroform, benzene and ethyl acetate (Solubility; alcohols, acetone, chloroform, benzene, ethyl acetate): readily soluble
- solubility in ether (Solubility; ether): sparingly
- solubility in hexane or water (Solubility; hexane or water): very slightly
- behavioral signs (mice [4]): head drop with righting reflex; also recorded: decreased locomotion; also recorded: abduced hindlegs with righting reflex; also recorded: unsteady gait; also recorded: catalepsy
- lowering of body temperature from 37° to (mice [4]; from 37°): 31 °
- mortality at 100 ppm [5]: 93%
- ED50 ([6]; Mus musculus, mice, inhibition of amphetamine-induced agitation, stereotypy, body-hydration): 0.2 mg/kg
- % Inhibition (antiamphetamine activity) ([6]; mice, dose 0.03 mg/Kg): 20%
- % Inhibition (antiamphetamine activity) ([6]; mice, dose 0.1 mg/Kg): 40%
- % Inhibition (antiamphetamine activity) ([6]; mice, dose 0.3 mg/Kg): 60%
- % Inhibition (antiamphetamine activity) ([6]; mice, dose 0.5 mg/Kg): 60%
- % Inhibition (antiamphetamine activity) ([6]; mice, dose 1.0 mg/Kg): 70%
- % Inhibition (antiamphetamine activity) ([6]; mice, dose 1.2 mg/Kg): 80%
- % Inhibition (antiamphetamine activity) ([6]; mice, dose 1.5 mg/Kg): 80%
- inhibiting hyperactivity, agitation, and other effects induced by CNS stimulants of the amphetamine class (summary) ([6]; summary statement, no dose): significant activity
